Assay results taken from ChEMBL document CHEMBL3352494, “New guaiane sesquiterpenes from Artemisia rupestris and their inhibitory effects on nitric oxide production” (Bioorg Med Chem Lett, 2014).

Columns and labels:
RAW264.7 [1] = assay: Inhibition of NO production in LPS-stimulated mouse RAW264.7 cells pre-incubated for 2 hrs before LPS stimulation for 24 hrs by Griess assay method; type: functional, cell-based
RAW264.7 [2] = assay: Cytotoxicity against mouse RAW264.7 cells at 0.01 to 100 uM after 24 hrs by MTT assay; type: cell-based; settings: raw264.7, 24 h

IC50 (RAW264.7 [1]) | Compound | Activity (RAW264.7 [2])
0.18 µM | C=C(C(=O)O)[C@@H]1CC[C@H](C)[C@]2(O)CC(=O)C(C)=C2C1 | Non-toxic
0.47 µM | C=C(C(=O)O)[C@@H]1CC[C@](C)(O)[C@@H]2CC(=O)C(C)=C2C1 | Non-toxic
4.6 µM | C=C(C(=O)O[C@@H]1O[C@H](CO)[C@@H](O)[C@H](O)[C@H]1O)[C@@H]1CC[C@H](C)[C@@H]2CC(=O)C(C)=C2C1 | Non-toxic
4.75 µM | COc1cc(-c2oc3cc(OC)c(OC)c(O)c3c(=O)c2O)ccc1O | Non-toxic
21.4 µM | COc1ccc(Oc2cc(=O)c3c(O)cc(O[C@@H]4O[C@H](CO)[C@@H](O)[C@H](O)[C@H]4O)cc3o2)cc1 | Non-toxic
9.51 µM | COc1ccc(-c2cc(=O)c3c(O)cc(O[C@@H]4O[C@H](CO)[C@@H](O)[C@H](O)[C@H]4O)cc3o2)cc1OC | Non-toxic
23.3 µM | COC(=O)[C@@]1(O)C[C@@H](O)[C@@H](OC(=O)/C=C/c2ccc(O)c(O)c2)[C@H](OC(=O)/C=C/c2ccc(O)c(O)c2)C1 | Non-toxic
20.2 µM | O=C(/C=C/c1ccc(O)c(O)c1)O[C@@H]1[C@H](O)C[C@](O)(C(=O)O)C[C@H]1OC(=O)/C=C/c1ccc(O)c(O)c1 (relative stereo) | Non-toxic
10 µM | COc1ccc(-c2cc(=O)c3c(O)cc(O[C@@H]4O[C@H](CO[C@@H]5O[C@@H](C)[C@H](O)[C@@H](O)[C@H]5O)[C@@H](O)[C@H](O)[C@H]4O)cc3o2)cc1 [ACACIIN] | Non-toxic
0.24 µM | COc1cc(-c2cc(=O)c3c(O)cc(O)cc3o2)ccc1O [CHRYSOERIOL] | 
8.3 µM | O=c1cc(-c2ccc(O)c(O)c2)oc2cc(O[C@@H]3O[C@H](CO)[C@@H](O)[C@H](O)[C@H]3O)cc(O)c12 [GALUTEOLIN] | Non-toxic
5.08 µM | COc1ccc(-c2cc(=O)c3c(O)c(OC)c(O)c(OC)c3o2)cc1 [NEVADENSIN] | Non-toxic
3.04 µM | C=C(C(=O)O)[C@@H]1CC[C@H](C)[C@@H]2CC(=O)C(C)=C2C1 [PECHUELOIC ACID] | Non-toxic
8.94 µM | COc1ccc(-c2cc(=O)c3c(O)cc(O[C@@H]4O[C@H](CO)[C@@H](O)[C@H](O)[C@H]4O)cc3o2)cc1 [TILIANINE] | Non-toxic

Compound | IC50 (RAW264.7 [1]) | Activity (RAW264.7 [2])
O=c1cc(-c2ccc(O)c(O)c2)oc2cc(O)cc(O)c12 [LUTEOLIN] | 0.21 µM | Non-toxic
N=C(N)NN [PIMAGEDINE] | 0.23 µM | 
